Laboratory results reported in US8518954B2, “Inhibitors of folic acid-dependent enzymes” (priority 2005, dated 2013).

Tests used:
[1] = test system: dihydrofolate reductase (DHFR); settings: one representative experiment out of 5; 37° C., pH 7.0, 20 μM dihydrofolate, 100 μM NADPH
L 1210 cells = assay: Tumor inhibition in mice, subcutaneous L1210 cells; format: in vivo; settings: DBA/2 mice, L1210 s.c.; 0.5 mg/kg; saline control 6.7 days
Method: The ability of compounds of formula I to inhibit tumor growth in mice was tested as follows. 5×10^6 L 1210 cells were injected subcutaneously in the axillary region of DBA/2 mice (groups of 8 mice/treatment). Following intraperitoneal administration of saline solution only or saline solution containing a compound of formula I the length and width of the control tumor (receiving only saline) was measured at the indicated time and compared to those of animals receiving test compound to calculate the percentage of inhibition. Intraperitoneal administration of a saline solution containing the test compound, daily for 6 days, led to 60% tumor-free long term survivors (tumor weight zero). Median survival times for saline-treated control animals and animals receiving Compound 4 (0.5 mg/kg) were 6.7 and 15.6 days, respectively. Oral administration of the compound required a higher dosage of the inhibitor and led to a less-marked, but still significant reduction of the tumor weight and 25% long-term survivors as compared with the saline-treated control group.

carcinoma W256 = assay: Walker-256 rat tumor model; format: in vivo
Method: Compounds of formula I were also active in vivo against the carcinoma W256 (TGI=28%), most likely due to the higher solubility and thus passive transport into the tumor compared with other anti-folate agents. Median survival times for saline-treated control animals and animals receiving Compound 4 (1 mg/kg) intraperitoneally in the Walker-256 rat tumor model were 22.5 and >46.3 days, respectively.

[2] = 0.25 mg/kg - 3 doses every 4 days
[3] = 0.5 mg/kg - 3 doses every 4 days

In the case of “N-[4-[[2,4-diamino-6-pteridinyl)methyl]amino]benzoyl]pseudoglutamic acid [Compound 4]”, the “Relative IC50 (IC50(Compound)/IC50(MTX))” value [1] is reported as 0.75, the Median survival time (L 1210 cells) is reported as 15.6 days and the “No. animals surviving at day 30 days post-transplant” value (“No. animals surviving” below) (carcinoma W256; 0.1 mg/kg - 5 doses every day) is reported as 10/10. For the same substance, the “Tumor volume (cm^3) ± SE” value (carcinoma W256; 0.1 mg/kg - 5 doses every day) was 14.5 ± 3.8 cm^3, the “No. animals surviving” value (carcinoma W256; [2]) was 8/10 and the “Tumor volume (cm^3) ± SE” value (carcinoma W256; [2]) was 23 ± 3.5 cm^3. For the same substance, the “No. animals surviving” value (carcinoma W256; [3]) was 9/10, the “Tumor volume (cm^3) ± SE” value (carcinoma W256; [3]) was 13.4 ± 3.07 cm^3 and the “No. animals surviving” value (carcinoma W256; 1 mg/kg - one dose) was 8/10. The “Tumor volume (cm^3) ± SE” value (carcinoma W256; 1 mg/kg - one dose) was 17.1 ± 3.3 cm^3 and the Median survival time (carcinoma W256; Walker-256 rat tumor model, 1 mg/kg intraperitoneally, saline control 22.5 days) was greater than 46.3 days.
